Experimental data as given in US20140358094A1, “COMPOSITION, THE NANO-EMULSION AND TRANSDERMAL PATCH, METHODS OF PREPARATION AND USE THEREOF FOR TREATING TRAUMATIC INJURIES” (Nano and Advanced Materials Institute Limited, priority 2013, published 2014).

Assay: In vitro skin diffusion study, vertical Franz diffusion cell, HPLC-ESI-MS of markers
Assay type: in vitro ADME, pig
Conditions: 24 hours; for elevation of diffusion properties, transdermal patch relative to herbal paste control, receiving medium: FIG. 4A, markers diffused in the receiving medium; for elevation of diffusion properties, transdermal patch relative to herbal paste control, pig skin: FIG. 4B, markers remained in the pig skin; for percentage by weight of marker diffused to the dermis (remained in pig skin), Herbal Paste (Control) / percentage by weight of marker in the receiving cell, Herbal Paste (Control): donor: herbal paste of Example 1; for percentage by weight of marker diffused to the dermis (remained in pig skin), Herbal Paste (Control) / percentage by weight of marker in the receiving cell, Herbal Paste (Control) / percentage by weight of marker diffused to the dermis (remained in pig skin), Transdermal Patch (Test Sample) / percentage by weight of marker in the receiving cell, Transdermal Patch (Test Sample): 37° C., pig skin; for percentage by weight of marker diffused to the dermis (remained in pig skin), Transdermal Patch (Test Sample) / percentage by weight of marker in the receiving cell, Transdermal Patch (Test Sample): donor: transdermal patch of Example 4.2
Description: A vertical Franz diffusion cell (Hanson Research, USA) is used to carry out in vitro skin diffusion study. […] The receiving medium is formed by physiological saline solution of (0.9% NaCl). The donor compartment is filled with the test sample or control sample. […] After 24 hours, contents of the receiving cell and pig skin sample are collected, the solution from the receiving cell (i.e. receiving medium) and pig skin are detected for chemical markers found therein in order to analyze the transdermal diffusion rate of the test sample and control sample. The test is performed in triplicate. HPLC-ESI-MS is used to detect diffused markers and control sample. Agilent 1290 Infinity LC system (purchased from Agilent Technologies) having a vacuum device, a binary liquid pump, an autosampler, Agilent 6410 triple quadrupole (Triple Quad) LC/MS connected with a Agilent MassHunter computer software (Workstation) is used. Acquity UPLC HSS T3 1.8 μm (2.1 mm×150 mm) column is used and the Acquity UPLC is maintained a temperature of 40° C. […] The flow rate is controlled at 0.5 mL/min, and injection volume of 20 µL. MS analysis using Agilent 6410 triple quadrupole LC/MS configured with ESI MS is carried out under negative ion mode and multiple reaction monitoring modes. Target ions of HYA is m/z 611.2->325.0; Rg1 is m/z 799.5->637.4; […] is m/z 927.5->603.3; Rb1 is m/z 1107.6->119.0; Kae is m/z 285.0->117.0; Emo is m/z 269.0->241.0; Rhe is m/z 283.0->239.0 and OA is m/z 455.3->407.4.

Compound	elevation of diffusion properties, transdermal patch relative to herbal paste control, receiving medium	elevation of diffusion properties, transdermal patch relative to herbal paste control, pig skin	percentage by weight of marker diffused to the dermis (remained in pig skin), Herbal Paste (Control)	percentage by weight of marker in the receiving cell, Herbal Paste (Control) (receiving medium 0.9% NaCl)	percentage by weight of marker diffused to the dermis (remained in pig skin), Transdermal Patch (Test Sample)	percentage by weight of marker in the receiving cell, Transdermal Patch (Test Sample) (receiving medium 0.9% NaCl)	detection in the receiving medium (in words) (receiving medium 0.9% NaCl)
CC1(C)CC[C@]2(C(=O)O[C@@H]3O[C@H](CO[C@@H]4O[C@H](CO)[C@@H](O)[C@H](O)[C@H]4O)[C@@H](O)[C@H](O)[C@H]3O)CC[C@]3(C)C(=CC[C@@H]4[C@@]5(C)CC[C@H](O[C@@H]6OC[C@H](O)[C@H](O)[C@H]6O)[C@@](C)(CO)[C@@H]5CC[C@]43C)[C@@H]2C1 [ASP6, Asperosaponin VI]	32 times	33 times	0.0859 wt %	0.1375 wt %	2.8010 wt %	4.4904 wt %	
Cc1cc(O)c2c(c1)C(=O)c1cc(O)cc(O)c1C2=O [Emo, Emodin]	203 times	5 times	0.2773 wt %	0.0091 wt %	1.3656 wt %	1.8494 wt %	
O=c1c(O)c(-c2ccc(O)cc2)oc2cc(O)cc(O)c12 [Kae, Kaempferol]	11 times	12 times	0.7532 wt %	6.5294 wt %	9.0852 wt %	72.3590 wt %	
CC1(C)CC[C@]2(C(=O)O)CC[C@]3(C)C(=CC[C@@H]4[C@@]5(C)CC[C@H](O)C(C)(C)[C@@H]5CC[C@]43C)[C@@H]2C1 [OA, Oleanolic Acid]		47 times	0.1253 wt %	0.0000 wt %	5.8588 wt %	0.0000 wt %	cannot be detected
CC(C)=CCC[C@](C)(O[C@@H]1O[C@H](CO[C@@H]2O[C@H](CO)[C@@H](O)[C@H](O)[C@H]2O)[C@@H](O)[C@H](O)[C@H]1O)[C@H]1CC[C@]2(C)[C@@H]1[C@H](O)C[C@@H]1[C@@]3(C)CC[C@H](O[C@@H]4O[C@H](CO)[C@@H](O)[C@H](O)[C@H]4O[C@@H]4O[C@H](CO)[C@@H](O)[C@H](O)[C@H]4O)C(C)(C)[C@@H]3CC[C@]12C [Rb1, Ginsenoside Rb1]	472 times	17 times		0.0167 wt %		7.8820 wt %	
CC(C)=CCC[C@](C)(O[C@@H]1O[C@H](CO)[C@@H](O)[C@H](O)[C@H]1O)[C@H]1CC[C@]2(C)[C@@H]1[C@H](O)C[C@@H]1[C@@]3(C)CC[C@H](O)C(C)(C)[C@@H]3[C@@H](O[C@@H]3O[C@H](CO)[C@@H](O)[C@H](O)[C@H]3O)C[C@]12C [Rg1, Ginsenoside Rg1]	14 times	21 times		1.1884 wt %		16.3635 wt %	
O=C(O)c1cc(O)c2c(c1)C(=O)c1cccc(O)c1C2=O [Rhein]	21 times	11 times	0.1371 wt %	0.2299 wt %	1.4277 wt %	4.8924 wt %	
Hydrosafflower yellow A [HYA]	8 times	41 times	0.0117 wt %	2.0879 wt %	0.4772 wt %	16.5104 wt %	
